In patent US5610171A, “Inhibition of metastasis in patients having cancer with pyridyloxazole-2-ones” (Merrell Pharmaceuticals Inc., priority 1995, dated 1997):
“Also recorded” adds a separate entry of the source.

Columns and labels:
membrane-associated PKC [1] = assay: Inhibition of B16F1 membrane-associated PKC activity; assay type: biochemical, murine; conditions: B16F1 membrane fraction
Protocol: (§1) Protein Kinase C Preparation
(§2) Cytostolic and membrane-associated PKC was prepared as described in Thomas, T. P., Gopalakrishna, R. and Anderson, W. B. Hormone- and tumor promoter-induced activation of membrane association of protein kinase C in intact cells, Methodsin Enzymology, 141: 399-411, 1987. Sub-confluent B16F1 cultures (4×10^7 cells total) were washed twice with phosphate buffered saline (PBS), pH 7.2 and then twice with buffer A (20 mM Tris, pH 7.5, 2 mM EDTA, 0.5 mM EGTA, […], 2 mM phenylmethylsulfonyl fluoride (PMSF), and 2 μg/ml leupeptin). Cells were scraped from the plates in buffer A, homogenized (40 strokes) and sedimented by centrifugation for 1 hour at 100,000 g. The cytosol was stored on ice while the particulate fraction was washed with buffer B (20 mM Tris, pH 7.2, 2 mM EDTA, 0.5 mM EGTA, and 2 mM (PMSF). The membranes were resuspended with buffer B and homogenized with 10 strokes. Nonidet P-40 (1% final concentration) was added and the mixture was incubated for 30 minutes at 4° C. in a rotating mixer. Nonsolubilized material was removed by centrifugation for 10 minutes at 1400 g. Cytostolic and membrane-bound PKC was partially purified by chromatography over 1 ml columns of DE-52 (Whatman) equilibrated with buffer B. The enzyme was applied to the column and washed with 2×3 ml buffer B. Elution of PKC was then effected by the addition of 2 ml buffer B containing 100 mM NaCl.
(§3) PKC was quantitated as described in Thomas et al., ibid. The assay contained 20 mM Tris (pH 7.5), 0.75 mM CaCl, 10 mM magnesium acetate, […] histone III-S, 0.25 μg/ml leupeptin, 100 μM [gamma-^32 p]-ATP (120 cpm/pmol), 0.96 μg/ml phosphatidylserine, and 0.0064 μg/ml 1,2-diolein in a total assay volume of 250 μl. Blanks contained no calcium or phospholipids. Incubation was for 5 minutes at 30° C. at which point the reaction was terminated by the addition of 1 ml 25% trichloroacetic acid (TCA). Samples were applied to Whatman GF/B filters, the tube rinsed twice with 5% TCA and the filter then washed 5 times with 5% TCA.

laminin = assay: Adhesion of B16F1 cells to laminin; assay type: cell-based; conditions: 24 hours
Protocol: (§4) Adhesion of B16F1 Cells to Basement Membrane Proteins
(§5) Adhesion proteins (2 μg/well) were coated onto Immulon I Removawells from Dynatech and incubated for 1 hour at 37° C. The wells were then blocked for 1 hour with 400 μl PBS, pH 7.2 containing 1% bovine serum albumin (BSA) at 37° C. Prior to addition of the cell suspension, the blocking solution was aspirated.
(§6) Sub-confluent cells were washed twice with HBSS and removed form flasks by incubation for 10 minutes at 37° C. with PBS (pH 7.2), 2 mM EDTA, and 1% BSA. The cells were washed twice with MEM containing 20 mM HEPES and 0.1% BSA and resuspended in the same medium to give a cell density of […].
(§7) Cells were added to wells in 50 μl (5×10^4 cells) and incubated at 37° C. The wells were aspirated and washed three times with 400 μl PBS (pH 7.2) containing 0.1% BSA. Wells were detached and counted in 5 ml Beckman Ready Protein. Blanks were not coated with protein but were blocked with BSA as described above.

fibrinogen = assay: Adhesion of B16F1 cells to fibrinogen; assay type: cell-based; conditions: 24 hours
Protocol: as §4, §5, §6, §7

[2] = system: extracellular matrix/basement membrane proteins; assay: Adhesion of B16F1 cells to extracellular matrix/basement membrane proteins; assay type: cell-based, murine
Protocol: as §4, §5, §6, §7

membrane-associated PKC [3] = assay: PKC activity in membranes of pretreated B16F1 cells; assay type: cell-based, murine; conditions: 24 hours
Protocol: as §1, §2, §3
B16F1 cells were incubated with 4-propyl-5(4-
pyridinyl)-2(3H)-oxazolone for 24 hours at 37° C. PKC was
then prepared and its activity was measured as described in […]

fibronection = assay: Adhesion of B16F1 cells to fibronectin; assay type: cell-based; conditions: 24 hours
Protocol: as §4, §5, §6, §7

B16F1 cells = assay: Colony forming (clonogenic) assay of B16F1 cells; assay type: cell-based, murine; conditions: 24 hours
Protocol: One hundred viable cells, as determined by trypan blue exclusion, were plated per 35 mm dish in MEM and incubated for 24 hours at 37° C. Next, 4-propyl-5(4-pyridinyl)-2(3H)-oxazolone was added and incubation continued for an additional 24 hours, after which the dishes were washed twice with Hank's Balanced Salt Solution (HBSS) and replenished with MEM. Ten days later, colonies with a diameter of 2 mm or greater were counted.
B16F1 cells (10^2) were plated and incubated for 24
hours at 37° C. Next, 4-propyl-5(4-pyridinyl)-2(3H)-
oxazolone (compound 1) was added and incubation continued
for an additional 24 hours at which time the drug was
removed. Ten days later, colonies greater than 2 mm in […]

cytosolic PKC = assay: Inhibition of B16F1 cytosolic PKC activity; assay type: biochemical, murine; conditions: B16F1 cytosol fraction
Protocol: as §1, §2, §3
^a Subconfluent B16F1 cells were harvested and cytosol and membrane
fractions prepared as described in Materials and Methods. PKC activity wa
then measured in the presence of the drugs listed.

CCCc1[nH]c(=O)oc1-c1ccncc1 [Compound 1, 4-propyl-5(4-pyridinyl)-2(3H)-oxazolone]
IC50 (membrane-associated PKC [1]): 13 µM
adherence to laminin (laminin): inhibited minimally or not at all
adhesion to fibrinogen (fibrinogen): most sensitive to inhibition
attachment to extracellular matrix/basement membrane proteins ([2]; 24 hours): decreased adhesion to some basement membrane proteins; also recorded: less adherent than untreated cells
potency for inhibition of adhesion relative to H-7 ([2]; versus H-7): more potent than H-7
potency for inhibition of adhesion relative to staurosporine ([2]; versus staurosporine): significantly less potent than staurosporine
PKC Activity Ratio membrane/cytosol (membrane-associated PKC [3]; 5 μM): 0.29
PKC Activity, membrane (membrane-associated PKC [3]; 5 μM): 2151 pmol per min per mg protein
PKC Activity Ratio membrane/cytosol (membrane-associated PKC [3]; 25 μM): 0.61
PKC Activity, membrane (membrane-associated PKC [3]; 25 μM): 1511 pmol per min per mg protein
PKC Activity Ratio membrane/cytosol (membrane-associated PKC [3]; 50 μM): 0.27
PKC Activity, membrane (membrane-associated PKC [3]; 50 μM): 1000 pmol per min per mg protein
adherence to fibronection (fibronection): inhibited minimally or not at all
Colonies per dish, Mean +/- SE (B16F1 cells; 10 μM): 27 +/- 2 colonies per dish
Colonies per dish, Mean +/- SE (B16F1 cells; 20 μM): 34 +/- 1 colonies per dish
Colonies per dish, Mean +/- SE (B16F1 cells; 50 μM): 29 +/- 1 colonies per dish
viability of treated cells (clonogenic assay) (B16F1 cells): equivalent to untreated cells
IC50 (cytosolic PKC): 54 µM
